# Data as given in patent US20180303853A1, “COMPOSITIONS AND METHODS FOR TREATING BACTERIAL INFECTIONS USING CEFTAROLINE” (priority 2017, published 2018).
# Columns and labels:
# [1] = Excretion after single IV dose of radiolabeled ceftaroline fosamil in healthy male adults; format: in vivo, human; settings: in vivo
# Method: Following administration of a single 600 mg IV dose of radiolabeled ceftaroline fosamil to healthy male adults, approximately 87% of radioactivity was recovered in urine and 6% in feces. The majority of the radioactivity (˜90%) was recovered within 48 hours. Of the radioactivity recovered in urine, approximately 64% was excreted as ceftaroline and approximately 2% as ceftaroline-M-1.
# [2] = human, in vivo
# Method: The pharmacokinetics of ceftaroline were evaluated in adolescent patients (ages 12 to 17) with normal renal function.
# No dose adjustment is required based on gender.
# [3] = human, in vivo; remark: listed apart in the source
# [4] = test system: H. influenzae; assay: Example 4 CAP study, outcome by baseline pathogen; format: in vivo
# From the text: (§1) Per-pathogen clinical cure rate and favorable microbiological outcome rate at TOC in the mMITTE and ME Populations;
# [5] = test system: H. parainfluenzae; assay: Example 4 CAP study, outcome by baseline pathogen; format: in vivo
# From the text: as §1
# [6] = test system: K. pneumoniae; assay: Example 4 CAP study, outcome by baseline pathogen; format: in vivo
# From the text: as §1
# [7] = test system: S. aureus; assay: Example 4 CAP study, outcome by baseline pathogen; format: in vivo
# From the text: as §1
# [8] = test system: S. pneumoniae; assay: Example 4 CAP study, outcome by baseline pathogen; format: in vivo
# From the text: as §1
# [9] = test system: community-acquired pneumonia (CAP); assay: Example 5 Phase 3 study, ceftaroline vs ceftriaxone with adjunctive clarithromycin in CAP, efficacy; format: in vivo, human
# From the text: The secondary objective of the study was to evaluate the following: the clinical response at end-of-therapy (EOT); the microbiological favorable outcome rate at TOC; the overall (clinical and radiographic) success rate at TOC; the clinical and microbiological response by pathogen at TOC; clinical relapse at late follow-up (LFU); microbiological reinfection/recurrence at LFU; and safety.
# The primary efficacy outcome measures were the per-subject clinical cure rate at TOC in the CE and MITTE Populations. Subjects were considered clinically cured at TOC if they had total resolution of all signs and symptoms of the baseline infection, or improvement of the infection such that no further antimicrobial therapy was necessary.
# Non-inferiority was concluded if the lower limit of the 95% CI was higher than −10%.
# [10] = human, in vivo; remark: listed apart in the source
# Method: (§2) Study drug: Ceftaroline fosamil was administered in two consecutive 300 mg intravenous (IV) infusions over 30 minutes, every 12 hours (q12h). The 600-mg dose of ceftaroline fosamil infused over 60 minutes was split into two infusions in order to maintain the blind. For subjects with moderate renal impairment (30 mL/min<CrCl≤50 mL/min), as estimated by the Cockroft-Gault formula, unblinded pharmacy staff or unblinded study staff could adjust the dose of ceftaroline fosamil to two consecutive 200 mg infusions and readjust dose to two 300 mg infusions when renal function improved (CrCl>50 mL/min). The duration of treatment was between 5 to 7 days.
# (§3) All subjects initially received two doses (500 mg every 12 hours) of oral adjunctive therapy with clarithromycin following randomization.
# (§4) All subjects who received any amount of study drug were included in the safety analysis. Safety measures included monitoring for adverse events (AE) up to TOC and serious adverse events (SAE) through LFU; recording vital signs, physical examination, electrocardiogram (ECG), and clinical laboratory findings (clinical chemistry, hematology, and urinalysis); at prespecified times throughout the study.
# [11] = Example 5 CAP study, safety
# Method: as §2, §3, §4
smiles,measurement,setting,value
"CCO/N=C(\C(=O)N[C@@H]1C(=O)N2C(C(=O)[O-])=C(Sc3nc(-c4cc[n+](C)cc4)cs3)CS[C@H]12)c1nsc(N)n1 [Ceftaroline, ceftaroline]",route of elimination,[1],primarily eliminated by the kidneys
same,AUC higher in female vs male subjects (trend),[2]; both,6-15%
same,Cmax higher in female vs male subjects (trend),[2]; both,17-22%
same,"mean recovery in the dialysate, share of the administered dose",[2]; 4 h,21.6%
same,mean AUC higher than in healthy young adults (18-45 years),"[2]; iv, 600 mg",~33%
same,"change in exposure (Cmax and AUC) with concomitant CYP450 inhibitors, inducers, substrates",[3],did nor identify any clinically relevant increases
same,Favorable Microbiological Outcome at TOC by Baseline Pathogen,"[4]; Example 4, ME",13/15 (86.7)
same,Clinical Cure Rate at the TOC Visit by Baseline Pathogen,"[4]; Example 4, ME Population",13/15 (86.7)
same,Favorable Microbiological Outcome at TOC by Baseline Pathogen,"[5]; Example 4, ME",9/9 (100.0)
same,Clinical Cure Rate at the TOC Visit by Baseline Pathogen,"[5]; Example 4, ME Population",9/9 (100.0)
same,Favorable Microbiological Outcome at TOC by Baseline Pathogen,"[6]; Example 4, ME",6/6 (100.0)
same,Clinical Cure Rate at the TOC Visit by Baseline Pathogen,"[6]; Example 4, ME Population",6/6 (100.0)
same,Favorable Microbiological Outcome at TOC by Baseline Pathogen,"[7]; Example 4, ME",11/15 (73.3)
same,Clinical Cure Rate at the TOC Visit by Baseline Pathogen,"[7]; Example 4, ME Population",10/15 (66.7)
same,Favorable Microbiological Outcome at TOC by Baseline Pathogen,"[8]; Example 4, ME",35/39 (89.7)
same,Clinical Cure Rate at the TOC Visit by Baseline Pathogen,"[8]; Example 4, ME Population",33/39 (84.6)
same,"Difference (ceftaroline minus ceftriaxone), Clinical Cure Rate at EOT","[9]; Example 5, CE",7.6%
same,"Difference (ceftaroline minus ceftriaxone), Clinical Success at TOC","[9]; Example 5, CE",8.4%
same,Clinical Success at the TOC Visit,"[9]; Example 5, CE population",194 (86.6) %
same,Per-subject Clinical Cure Rate at the EOT Visit,"[9]; Example 5, CE population",197 (87.9) %
same,"Difference (ceftaroline minus ceftriaxone), Favorable Microbiological Outcome at TOC","[9]; Example 5, ME",11.0%
same,Favorable Microbiological Outcome at the TOC Visit,"[9]; Example 5, ME population",62 (89.9) %
same,"Difference (ceftaroline minus ceftriaxone), Clinical Cure Rate at EOT","[9]; Example 5, MITTE",6.3%
same,"Difference (ceftaroline minus ceftriaxone), Clinical Success at TOC","[9]; Example 5, MITTE",6.2%
same,Clinical Success at the TOC Visit,"[9]; Example 5, MITTE population",244 (83.8) %
same,Per-subject Clinical Cure Rate at the EOT Visit,"[9]; Example 5, MITTE population",253 (86.9) %
same,"Difference (ceftaroline minus ceftriaxone), Favorable Microbiological Outcome at TOC","[9]; Example 5, mMITTE",9.3%
same,Favorable Microbiological Outcome at the TOC Visit,"[9]; Example 5, mMITTE population",66 (88.0) %
same,Adverse event: Constipation,[10],7 (2.3) %
same,TEAEs assessed as drug related by the Investigators,[10],17.1%
same,study-drug-related TEAE: headache,[10],1.0%
same,study-drug-related TEAE: hepatic enzyme increased,[10],0.3%
same,study-drug-related TEAE: sinus bradychardia,[10],1.0%
same,hemolytic anemia,[11],No evidence of hemolytic anemia
same,percentage of deaths,[11],1.7%
